≈ marks a conversion by molar mass, not a printed value. Where two headings read alike, the source gives them in different places.
What was measured:
Assay type in all cases: cell-based
[1] = tested on: S. aureus ATCC 49951 (NB01006); test: MIC by broth microdilution, S. aureus NB01006; conditions: Staphylococcus aureus, ATCC49951, CAMHB, 35° C., 20 hours, read-out: Antibacterial activity (MIC) NB01006
Method in brief: (§1)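 CLSI broth microdilution in cation-adjusted Mueller-Hinton broth, inoculum about 5×10^5 CFU/mL from overnight MHA cultures. Two-fold compound dilutions in 1% final DMSO; plates incubated 20 h at 35° C in ambient air. MIC (μg/mL) was the lowest concentration preventing visible growth, checked by OD600 and visual inspection.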

[2] = tested on: E. faecalis ATCC 29212 (NB04001); test: MIC by broth microdilution, E. faecalis NB04001; conditions: Enterococcus faecalis, ATCC29212, CAMHB, 35° C., 20 hours, read-out: Antibacterial activity (MIC) NB04001
Method in brief: as §1

[3] = tested on: S. pneumoniae ATCC 25922 (NB07001); test: MIC by broth microdilution, S. pneumoniae NB07001; conditions: Streptococcus pneumoniae, read-out: Antibacterial activity (MIC) NB07001
Method in brief: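 CAMHB, ~5×10^5 CFU/mL, 2-fold serial dilutions (final DMSO 1%), 35° C, ambient air, 20 h. Read OD600 plus visual check; MIC = lowest conc. with no visible growth, μg/mL.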

[4] = tested on: S. aureus NB01080 fluoroquinolone-resistant clinical isolate; test: MIC by broth microdilution, S. aureus NB01080; conditions: Staphylococcus aureus, CAMHB, 35° C., 20 hours, read-out: Antibacterial activity (MIC) NB01080
Method in brief: as §1

[5] = tested on: E. coli ATCC 25922 (NB27001); test: MIC by broth microdilution, E. coli NB27001; conditions: Escherichia coli, ATCC25922, CAMHB, 35° C., 20 hours, read-out: Antibacterial activity (MIC) NB27001
Method in brief: as §1

[6] = tested on: S. aureus NB01006-AVR005, gyrA (S84L), grlA (580F) and grlB (E471K); test: microbe, parasite or virus in culture; conditions: Staphylococcus aureus, 20 h, read-out: Antibacterial activity (MIC) NB01006-AVR005
Method in brief: as §1

[7] = tested on: P. aeruginosa NB52019, wild-type PAO1 strain; test: MIC by broth microdilution, P. aeruginosa NB52019; conditions: Pseudomonas aeruginosa, CAMHB, 35° C., 20 hours, read-out: Antibacterial activity (MIC) NB52019
Method in brief: as §1

In the case of C[C@H]1COc2c(N3CCN4C(=O)CCC4C3)c(F)cc3cc(C(=O)O)c(=O)n1c23 (stereo partly drawn) [Example 1.14, (3S)-9-fluoro-3-methyl-5-oxo-10-(6-oxohexahydropyrrolo[1,2-a]pyrazin-2(1H)-yl)-2,3-dihydro-5H-[1,4]oxazino[2,3,4-ij]quinoline-6-carboxylic acid], the MIC [1] was < 1 µg/mL, the MIC [2] was 1 to 32 µg/mL (≈ 2.49 to 79.7 µM) and the MIC ([3]; ATCC25922, 20 h) was 1 to 32 µg/mL (≈ 2.49 to 79.7 µM). For the same compound, the MIC [4] was 1 to 32 µg/mL (≈ 2.49 to 79.7 µM), the MIC [5] was > 32 µg/mL and the MIC [6] was 1 to 32 µg/mL (≈ 2.49 to 79.7 µM). The MIC [7] was > 32 µg/mL.
With C[C@H](N)[C@@H]1CCN(c2c(F)c(Cl)c3cc(C(=O)O)c(=O)n4c3c2OC[C@@H]4C)C1 [Example 19.2, (S)-10-((R)-3-((S)-1-aminoethyl)pyrrolidin-1-yl)-8-chloro-9-fluoro-3-methyl-5-oxo-2,3-dihydro-5H-[1,4]oxazino[2,3,4-ij]quinoline-6-carboxylic acid] the MIC [1] was < 1 µg/mL, the MIC [2] was < 1 µg/mL and the MIC ([3]; ATCC25922, 20 h) was < 1 µg/mL. The MIC [4] was < 1 µg/mL, the MIC [5] was < 1 µg/mL and the MIC [6] was < 1 µg/mL. For the same compound, the MIC [7] was 1 to 32 µg/mL (≈ 2.44 to 78.1 µM).
C[C@H]1COc2c(N3C[C@H]4[C@@H](C3)S(=O)(=O)C[C@@H]4N)c(F)cc3cc(C(=O)O)c(=O)n1c23 [Example 1.51, (S)-10-((3R,3aR,6aS)-3-amino-1,1-dioxidohexahydro-5H-thieno[2,3-c]pyrrol-5-yl)-9-fluoro-3-methyl-5-oxo-2,3-dihydro-5H-[1,4]oxazino[2,3,4-ij]quinoline-6-carboxylic acid] was tested, and the MIC [1] was > 32 µg/mL, the MIC [2] was > 32 µg/mL and the MIC ([3]; ATCC25922, 20 h) was > 32 µg/mL. The MIC [4] was > 32 µg/mL, the MIC [5] was > 32 µg/mL and the MIC [6] was > 32 µg/mL. The MIC [7] was > 32 µg/mL.
C[C@H]1COc2c(N3CCCC4(CCNC4)C3)c(F)cc3cc(C(=O)O)c(=O)n1c23 (mixture of isomers) [Example 1.71, (3S)-9-fluoro-3-methyl-5-oxo-10-(2,7-diazaspiro[4.5]decan-7-yl)-2,3-dihydro-5H-[1,4]oxazino[2,3,4-ij]quinoline-6-carboxylic acid] was tested, and the MIC [1] was > 32 µg/mL, the MIC [2] was > 32 µg/mL and the MIC ([3]; ATCC25922, 20 h) was > 32 µg/mL. The MIC [4] was > 32 µg/mL, the MIC [5] was > 32 µg/mL and the MIC [6] was > 32 µg/mL. For the same compound, the MIC [7] was > 32 µg/mL.
For C[C@H]1COc2c(N3CC4CC4(N)C3)c(F)cc3c(CN)cc(=O)n1c23 (stereo partly drawn) [Example 7.10, (3S)-10-(1-amino-3-azabicyclo[3.1.0]hexan-3-yl)-7-(aminomethyl)-9-fluoro-3-methyl-2,3-dihydro-5H-[1,4]oxazino[2,3,4-ij]quinolin-5-one], the MIC [1] was < 1 µg/mL, the MIC [2] was 1 to 32 µg/mL (≈ 2.9 to 92.9 µM) and the MIC ([3]; ATCC25922, 20 h) was < 1 µg/mL. For the same compound, the MIC [4] was 1 to 32 µg/mL (≈ 2.9 to 92.9 µM), the MIC [5] was < 1 µg/mL and the MIC [6] was < 1 µg/mL. It also gave an MIC [7] of 1 to 32 µg/mL (≈ 2.9 to 92.9 µM).
In the case of C[C@H]1COc2c(N3CCN4CCC3C4)c(F)cc3cc(C(=O)O)c(=O)n1c23 (stereo partly drawn) [Example 1.60, (3S)-10-(1,4-diazabicyclo[3.2.1]octan-4-yl)-9-fluoro-3-methyl-5-oxo-2,3-dihydro-5H-[1,4]oxazino[2,3,4-ij]quinoline-6-carboxylic acid], the MIC [1] was 1 to 32 µg/mL (≈ 2.68 to 85.7 µM), the MIC [2] was 1 to 32 µg/mL (≈ 2.68 to 85.7 µM) and the MIC ([3]; ATCC25922, 20 h) was 1 to 32 µg/mL (≈ 2.68 to 85.7 µM). The MIC [4] was > 32 µg/mL, the MIC [5] was 1 to 32 µg/mL (≈ 2.68 to 85.7 µM) and the MIC [6] was > 32 µg/mL. The MIC [7] was 1 to 32 µg/mL (≈ 2.68 to 85.7 µM).
With C[C@H]1COc2c(N3CCC4(CC4N)C3)c(F)c(F)c3cc(C(=O)O)c(=O)n1c23 (single isomer, unassigned) [Example 13.4] the MIC [1] was < 1 µg/mL, the MIC [2] was < 1 µg/mL and the MIC ([3]; ATCC25922, 20 h) was < 1 µg/mL. The MIC [4] was 1 to 32 µg/mL (≈ 2.56 to 81.8 µM), the MIC [5] was < 1 µg/mL and the MIC [6] was 1 to 32 µg/mL (≈ 2.56 to 81.8 µM). For the same compound, the MIC [7] was 1 to 32 µg/mL (≈ 2.56 to 81.8 µM).
CC(O)C1(F)CCN(c2c(F)cc3cc(C(=O)O)c(=O)n4c3c2OC[C@@H]4C)C1 (stereo partly drawn) [Example 1.44, (3S)-9-fluoro-10-(3-fluoro-3-(1-hydroxyethyl)pyrrolidin-1-yl)-3-methyl-5-oxo-2,3-dihydro-5H-[1,4]oxazino[2,3,4-ij]quinoline-6-carboxylic acid] was tested, and the MIC [1] was < 1 µg/mL, the MIC [2] was 1 to 32 µg/mL (≈ 2.54 to 81.1 µM) and the MIC ([3]; ATCC25922, 20 h) was 1 to 32 µg/mL (≈ 2.54 to 81.1 µM). For the same compound, the MIC [4] was > 32 µg/mL, the MIC [5] was 1 to 32 µg/mL (≈ 2.54 to 81.1 µM) and the MIC [6] was > 32 µg/mL. For the same compound, the MIC [7] was > 32 µg/mL.
For C[C@H]1COc2c(N3CCC4(CC4N)C3)c(F)cc3cc(C(=O)O)c(=O)n1c23 (single isomer, unassigned) [Example 1.42], the MIC [1] was < 1 µg/mL, the MIC [2] was 1 to 32 µg/mL (≈ 2.68 to 85.7 µM) and the MIC ([3]; ATCC25922, 20 h) was < 1 µg/mL. For the same compound, the MIC [4] was 1 to 32 µg/mL (≈ 2.68 to 85.7 µM), the MIC [5] was < 1 µg/mL and the MIC [6] was 1 to 32 µg/mL (≈ 2.68 to 85.7 µM). For the same compound, the MIC [7] was 1 to 32 µg/mL (≈ 2.68 to 85.7 µM).
In the case of C[C@H]1COc2c(N3CC[C@@H](C4(N)CC4)C3)c(F)cc3cc(C#N)c(=O)n1c23.O=C(O)C(F)(F)F [Example 5, (S)-10-((R)-3-(1-aminocyclopropyl)pyrrolidin-1-yl)-9-fluoro-3-methyl-5-oxo-2,3-dihydro-5H-[1,4]oxazino[2,3,4-ij]quinoline-6-carbonitrile trifluoroacetate salt], the MIC [1] was < 1 µg/mL, the MIC [2] was < 1 µg/mL and the MIC ([3]; ATCC25922, S. pneumoniae, CAMHB supplemented with 5% lysed horse blood, 35° C., 20 hours) was < 1 µg/mL. The MIC [4] was < 1 µg/mL, the MIC [5] was 1 to 32 µg/mL and the MIC [6] was < 1 µg/mL. It also gave an MIC [7] of 1 to 32 µg/mL.
With C[C@H]1COc2c(N3CC[C@@H](C4(N)CC4)C3)cc(N)c3cc(C(=O)O)c(=O)n1c23 [Example 20, (S)-8-amino-10-((R)-3-(1-aminocyclopropyl)pyrrolidin-1-yl)-3-methyl-5-oxo-2,3-dihydro-5H-[1,4]oxazino[2,3,4-ij]quinoline-6-carboxylic acid] the MIC [1] was < 1 µg/mL, the MIC [2] was 1 to 32 µg/mL (≈ 2.6 to 83.2 µM) and the MIC ([3]; ATCC25922, 20 h) was < 1 µg/mL. For the same compound, the MIC [4] was 1 to 32 µg/mL (≈ 2.6 to 83.2 µM), the MIC [5] was 1 to 32 µg/mL (≈ 2.6 to 83.2 µM) and the MIC [6] was 1 to 32 µg/mL (≈ 2.6 to 83.2 µM). The MIC [7] was > 32 µg/mL.
Work on CCc1c(F)c(N2CC[C@@H](C3(N)CC3)C2)c2c3c1cc(C(=O)O)c(=O)n3[C@@H](C)CO2 [Example 23, (S)-10-((R)-3-(1-aminocyclopropyl)pyrrolidin-1-yl)-8-ethyl-9-fluoro-3-methyl-5-oxo-2,3-dihydro-5H-[1,4]oxazino[2,3,4-ij]quinoline-6-carboxylic acid] yielded an MIC [1] of 1 to 32 µg/mL (≈ 2.41 to 77 µM), an MIC [2] of 1 to 32 µg/mL (≈ 2.41 to 77 µM) and an MIC ([3]; ATCC25922, 20 h) of 1 to 32 µg/mL (≈ 2.41 to 77 µM). For the same compound, the MIC [4] was 1 to 32 µg/mL (≈ 2.41 to 77 µM), the MIC [5] was > 32 µg/mL and the MIC [6] was > 32 µg/mL. The MIC [7] was > 32 µg/mL.
With C[C@H]1COc2c(N3CC4CC4(N)C3)c(F)c(F)c3cc(C(=O)O)c(=O)n1c23 (single isomer, unassigned) [Example 13.6] the MIC [1] was < 1 µg/mL, the MIC [2] was < 1 µg/mL and the MIC ([3]; ATCC25922, 20 h) was < 1 µg/mL. For the same compound, the MIC [4] was < 1 µg/mL, the MIC [5] was 1 to 32 µg/mL (≈ 2.65 to 84.8 µM) and the MIC [6] was 1 to 32 µg/mL (≈ 2.65 to 84.8 µM). The MIC [7] was > 32 µg/mL.
C[C@H]1COc2c(N3CC[C@H](O)C3)c(F)cc3cc(C(=O)O)c(=O)n1c23 [Example 1.6, (S)-9-fluoro-10-((S)-3-hydroxypyrrolidin-1-yl)-3-methyl-5-oxo-2,3-dihydro-5H-[1,4]oxazino[2,3,4-ij]quinoline-6-carboxylic acid] was tested, and the MIC [1] was < 1 µg/mL, the MIC [2] was 1 to 32 µg/mL (≈ 2.87 to 91.9 µM) and the MIC ([3]; ATCC25922, 20 h) was 1 to 32 µg/mL (≈ 2.87 to 91.9 µM). For the same compound, the MIC [4] was 1 to 32 µg/mL (≈ 2.87 to 91.9 µM), the MIC [5] was 1 to 32 µg/mL (≈ 2.87 to 91.9 µM) and the MIC [6] was > 32 µg/mL. For the same compound, the MIC [7] was > 32 µg/mL.
C[C@H]1COc2c(N3CC[C@@H](C(C)(C)O)C3)c(F)cc3cc(C(=O)O)c(=O)n1c23 [Example 1.34, (S)-9-fluoro-10-((R)-3-(2-hydroxypropan-2-yl)pyrrolidin-1-yl)-3-methyl-5-oxo-2,3-dihydro-5H-[1,4]oxazino[2,3,4-ij]quinoline-6-carboxylic acid] was tested, and the MIC [1] was 1 to 32 µg/mL (≈ 2.56 to 82 µM), the MIC [2] was > 32 µg/mL and the MIC ([3]; ATCC25922, 20 h) was > 32 µg/mL. The MIC [4] was > 32 µg/mL, the MIC [5] was > 32 µg/mL and the MIC [6] was > 32 µg/mL. The MIC [7] was > 32 µg/mL.

Reference: US20180318311A1, “TRICYCLIC 2-QUINOLINONES AS ANTIBACTERIALS” (priority 2017, published 2018)
